Experiment: Compound was tested for inhibitory activity against carboxypeptidase A

Ki: 7.8 nM
Compound: O=C(O)[C@@H](CS)Cc1ccccc1 [(S)-2-Mercaptomethyl-3-phenyl-propionic acid]

— BindingDB's records for doi:10.1016/S0960-894X(01)80741-1 (1993)
